From the supplement of paper PMC10307832

Legend:
Assay in all cases: relative viability (nuclei count vs DMSO), 5 days (fraction); higher = more cells survive
Ibrutinib + Foretinib = compound: C=CC(=O)N1CCC[C@@H](n2nc(-c3ccc(Oc4ccccc4)cc3)c3c(N)ncnc32)C1 [Ibrutinib] + COc1cc2c(Oc3ccc(NC(=O)C4(C(=O)Nc5ccc(F)cc5)CC4)cc3F)ccnc2cc1OCCCN1CCOCC1 [Foretinib] (partner 0.25 µM)
Method in brief: (§1)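 A single step with final 0.05% Triton X-100, 1% formaldehyde and 1 ug/ml Hoechst fixed the cells and stained nuclei 5 days after treatment. Lung cancer cell lines in 1536-well plates had been treated by pin tool the day after seeding with one drug alone or a fixed anchor-drug dose plus five library-drug doses (not always all listed) in √10 steps, and nuclei were counted on 4× images. Relative viability is the ratio of nuclei in treated wells to nuclei in vehicle wells, taken as the median of duplicate plates.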

BMX-IN-1 + Pemetrexed = compound: C=CC(=O)Nc1cc(-n2c(=O)ccc3cnc4ccc(-c5ccc(NS(C)(=O)=O)cc5)cc4c32)ccc1C [BMX-IN-1] + Nc1nc2[nH]cc(CCc3ccc(C(=O)N[C@@H](CCC(=O)O)C(=O)O)cc3)c2c(=O)[nH]1 [Pemetrexed] (partner 0.2 µM)
Method in brief: as §1

PAC-1 + Tozasertib = compound: C=CCc1cccc(/C=N/NC(=O)CN2CCN(Cc3ccccc3)CC2)c1O [PAC-1] + Cc1cc(Nc2cc(N3CCN(C)CC3)nc(Sc3ccc(NC(=O)C4CC4)cc3)n2)n[nH]1 [Tozasertib] (partner 0.1 µM)
Method in brief: as §1

PAC-1 + Decitabine = compound: C=CCc1cccc(/C=N/NC(=O)CN2CCN(Cc3ccccc3)CC2)c1O [PAC-1] + Nc1ncn([C@H]2C[C@H](O)[C@@H](CO)O2)c(=O)n1 [Decitabine] (partner 2 µM)
Method in brief: as §1

| Cell Line | relative viability (Ibrutinib + Foretinib; first compound 0.005 µM) | relative viability (Ibrutinib + Foretinib; first compound 0.01581 µM) | relative viability (Ibrutinib + Foretinib; first compound 0.05 µM) | relative viability (Ibrutinib + Foretinib; first compound 0.5 µM) | relative viability (BMX-IN-1 + Pemetrexed; first compound 0.02 µM) | relative viability (BMX-IN-1 + Pemetrexed; first compound 0.2 µM) | relative viability (BMX-IN-1 + Pemetrexed; first compound 0.6325 µM) | relative viability (BMX-IN-1 + Pemetrexed; first compound 2 µM) | relative viability (PAC-1 + Tozasertib; first compound 0.02 µM) | relative viability (PAC-1 + Tozasertib; first compound 0.06325 µM) | relative viability (PAC-1 + Tozasertib; first compound 0.2 µM) | relative viability (PAC-1 + Tozasertib; first compound 2 µM) | relative viability (PAC-1 + Decitabine; first compound 0.02 µM) | relative viability (PAC-1 + Decitabine; first compound 0.06325 µM) | relative viability (PAC-1 + Decitabine; first compound 0.2 µM) | relative viability (PAC-1 + Decitabine; first compound 2 µM) | relative viability (Ibrutinib + Foretinib; first compound 0.1581 µM) |
| --- | --- | --- | --- | --- | --- | --- | --- | --- | --- | --- | --- | --- | --- | --- | --- | --- | --- |
| A-427 | 1.01 | 0.944 | 1.04 | 1.02 | 1.01 | 1.05 | 1.11 | 0.992 | 0.176 | 0.209 | 0.231 | 0.2 | 0.602 | 0.56 | 0.532 | 0.542 |  |
| HCC-827 | 1.04 | 0.993 | 0.813 | 0.165 | 0.237 | 0.297 | 0.287 | 0.235 | 0.397 | 0.401 | 0.4 | 0.421 | 0.354 | 0.285 | 0.277 | 0.292 | 1.03 |
| NCI-H1915 | 1.12 | 1.07 | 1.11 | 1.09 | 0.585 | 0.522 | 0.484 | 0.396 | 0.421 | 0.436 | 0.411 | 0.428 | 0.266 | 0.253 | 0.245 | 0.27 | 1.15 |
| NCI-H322M | 0.872 | 0.864 | 0.899 | 0.642 | 0.596 | 0.689 | 0.65 | 0.586 | 0.496 | 0.537 | 0.467 | 0.477 | 0.691 | 0.711 | 0.689 | 0.751 | 0.989 |
| EKVX | 0.835 | 0.762 | 0.802 | 0.232 | 0.56 | 0.448 | 0.464 | 0.452 | 0.426 | 0.393 | 0.339 | 0.365 | 0.216 | 0.315 | 0.378 | 0.319 | 0.617 |
| EMC-BAC-2 | 0.88 | 0.894 |  | 0.797 | 0.448 | 0.486 | 0.466 | 0.44 | 0.297 | 0.263 | 0.265 | 0.274 | 0.924 | 0.989 | 0.895 | 1.01 | 0.969 |
| HCC-15 | 0.978 | 0.929 | 1.08 | 1.01 | 0.2 | 0.218 | 0.192 | 0.218 | 0.398 | 0.458 | 0.449 | 0.378 | 0.628 | 0.685 | 0.56 | 0.599 | 1.08 |
| LXF-289 | 0.946 | 0.958 | 0.995 | 0.956 | 0.896 | 0.947 | 1.01 | 0.985 | 0.148 | 0.234 | 0.197 | 0.165 | 0.405 | 0.39 | 0.388 | 0.377 | 0.917 |
| NCI-H358 | 0.294 |  | 0.35 | 0.291 | 0.167 | 0.182 | 0.176 | 0.175 | 0.103 | 0.101 | 0.0952 | 0.109 | 0.229 | 0.219 | 0.209 | 0.16 | 0.551 |
